Reference: PMC3585965 (Drugs in R&D, 2012)

Tests used:
[1] = Study 2: pharmacokinetic drug-drug interaction GLPG0259 / methotrexate; format: in vivo, human; settings: methotrexate 7.5 mg
[2] = cited from earlier work

SMILES: CN(Cc1cnc2nc(N)nc(N)c2n1)c1ccc(C(=O)N[C@@H](CCC(=O)O)C(=O)O)cc1 [methotrexate]
- Cmax point estimate, with vs without GLPG0259 ([1]; day 14 (GLPG0259 50 mg) vs day -7): 89.63%
- AUC∞ point estimate, with vs without GLPG0259 ([1]; day 14 vs day -7): 118.22%
- t1/2,λz point estimate, with vs without GLPG0259 ([1]; day 14 vs day -7): 110.64%
- t1/2,λz, range of boundary values reported in the literature [2]: 6 to 69 h
